Assay [1] deals with Dual specificity protein kinase CLK2 (Homo sapiens, UniProt P49760). In kind it is functional.
Assay [2] has as its target Serine/threonine-protein kinase D2 (Homo sapiens, UniProt Q9BZL6). In kind it is functional.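 Also: measured against PRKD2 as one member of a kinome-wide kinase profiling panel.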
Assay [3] has as its target Serine/threonine-protein kinase D3 (Homo sapiens, UniProt O94806). In kind it is functional.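 Also: determined within a kinase panel screen, with PRKCN as the panel member.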
For assay [4], the target named is Serine/threonine-protein kinase pim-2 (Homo sapiens, UniProt Q9P1W9). The format is functional.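 Also: value comes from a broad kinase panel profiling study in which PIM2 was one of the panel members.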
Sequence of Serine/threonine-protein kinase pim-2 (Q9P1W9 whole entry): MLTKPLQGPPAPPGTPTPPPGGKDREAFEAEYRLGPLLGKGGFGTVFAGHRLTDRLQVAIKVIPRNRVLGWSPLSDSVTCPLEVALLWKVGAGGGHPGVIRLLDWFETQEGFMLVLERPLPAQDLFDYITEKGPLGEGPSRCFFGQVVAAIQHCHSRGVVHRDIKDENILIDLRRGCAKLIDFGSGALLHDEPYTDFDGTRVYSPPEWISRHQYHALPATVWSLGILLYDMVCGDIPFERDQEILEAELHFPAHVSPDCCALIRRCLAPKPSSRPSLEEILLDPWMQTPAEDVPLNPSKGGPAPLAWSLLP
Assay [5] has as its target Dual specificity tyrosine-phosphorylation-regulated kinase 1A (Homo sapiens, UniProt Q13627). The format is functional.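 Also: measured against DYRK1A as one member of a broad kinome profiling panel.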
A short description of assay [6]: inhibitors of firefly luciferase expression or activity, dose response, H4 neuroglioma cells, luminescence (AID 1990). In kind it is functional, cell-based.
Assay [7] has as its system BJ. Put plainly: cytotoxicity toward BJ-TERT fibroblasts, dose response, cell-based, RAS-independent, luminescence (AID 1933). The format is functional. The following applies: Homo sapiens.
A short description of assay [8]: Luminescence Cell-Based Dose Response HTS to Identify Inhibitors of 5'UTR Stem-Loop Driven Prion Protein mRNA Translation in H4 Neuroglioblastoma Cells. [Related pubchem assays: 1827 (Project Summary), 1813 (Primary HTS)]. In kind it is functional.
A short description of assay [9]: inhibitors of SNCA 5'UTR-driven reporter translation, confirmation, H4 neuroglioma cells, luminescence (AID 1988). In kind it is functional, cell-based.
Assay [10] relates to BJ. Put plainly: cells. In kind it is functional, cell-based. The following applies: Homo sapiens.
Assay [11] can be described thus: cytotoxicity in HPDE-C7 cells, cell-based, fluorescence, HTS (AID 430). The format is functional. The following applies: Homo sapiens.
The nature of assay [12]: cytotoxicity in KRAS-transformed pancreatic duct cells, primary screen, cell-based, fluorescence, HTS (AID 431).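 Also: cell line used: HPDE-C7K.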 The format is functional. The following applies: Homo sapiens.
Assay [13] concerns BJ. Put plainly: cytotoxicity toward BJ-TERT-LT-ST fibroblasts, dose response, cell-based, RAS-independent, luminescence (AID 1935).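 Also: BJ fibroblasts immortalized with TERT plus LT and ST oncogenes.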 The format is functional. The following applies: Homo sapiens.
Assay [14] is described as follows: cytotoxicity toward DRD oncogenic fibroblasts, dose response, cell-based, non-viral oncogenic, luminescence (AID 1934). The format is functional. The following applies: Homo sapiens.
The next assay addresses Melanocortin receptor 4 (Homo sapiens, UniProt P32245). Briefly: MC4R antagonist potency on cAMP, dose response, cell-based, TR-FRET, biased antagonists (AID 602298).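 Also: antagonist potency against agonist-stimulated cAMP production.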 In kind it is functional.
Assay [15] can be described thus: nonselective inhibitors of cellular cAMP signaling, dose response, counter-screen for MC4R biased antagonist project, cell-based, TR-FRET cAMP detection (AID 602305).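 Also: U2OS cells stimulated with forskolin near its EC80 as the cAMP inducer; potency is for inhibition of forskolin-stimulated cAMP signaling.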 The format is functional.
Assay [16] in a line: inhibitors of PGC1a acetylation in cells, dose response, cell-based, cherry-picked samples (AID 720514).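 Also: potency may reflect raised or lowered acetylation signal.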 In kind it is functional.
A short description of assay [17]: A549 cell cytotoxicity, dose response, cytotoxicity control, plate reader, cherry-pick, antagonist series (AID 743412). In kind it is functional, cell-based.
Assay [18] can be described thus: HepG2 cell cytotoxicity, dose response, cytotoxicity control, plate reader, cherry-pick, antagonist series (AID 743416). The format is functional, cell-based.
Assay [19] in a line: LGR2 antagonists, dose response, cell-based, HEK293, CRE-luciferase reporter, cherry pick, set 2 (AID 743343).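 Also: transfected cells were stimulated with diluted bursicon conditioned medium after compound addition.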 In kind it is functional.
The nature of assay [20]: MC4R antagonists, dose response, counter-screen for LGR2 antagonist project, cell-based, plate reader, cherry pick (AID 743444).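 Also: transfected HEK 293 cells stimulated with alpha-MSH peptide; potency of inhibitors of the alpha-MSH evoked signal.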 The format is functional.
A short description of assay [21]: HEK293 cell cytotoxicity, dose response, cytotoxicity control, plate reader, cherry-picked samples (AID 743446). The format is functional, cell-based.
For assay [22], the target named is T1, Calpain-2 catalytic subunit (Sus scrofa, UniProt P43367).
T1 sequence (P43367 whole entry): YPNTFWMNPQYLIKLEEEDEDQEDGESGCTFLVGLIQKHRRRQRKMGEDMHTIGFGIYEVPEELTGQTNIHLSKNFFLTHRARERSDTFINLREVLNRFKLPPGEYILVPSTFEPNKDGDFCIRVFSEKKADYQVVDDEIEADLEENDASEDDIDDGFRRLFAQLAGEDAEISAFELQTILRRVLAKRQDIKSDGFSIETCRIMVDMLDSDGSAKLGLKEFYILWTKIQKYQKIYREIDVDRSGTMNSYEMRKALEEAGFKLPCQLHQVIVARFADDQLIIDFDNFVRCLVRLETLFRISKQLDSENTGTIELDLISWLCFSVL
Briefly: pig calpain II inhibitor potency, dose response, biochemical, fluorogenic peptide substrate (AID 1420). In kind it is functional.

Assay [23] has as its target T2, High affinity choline transporter 1 (Homo sapiens, UniProt Q9GZV3).
T2 sequence (Q9GZV3 whole entry): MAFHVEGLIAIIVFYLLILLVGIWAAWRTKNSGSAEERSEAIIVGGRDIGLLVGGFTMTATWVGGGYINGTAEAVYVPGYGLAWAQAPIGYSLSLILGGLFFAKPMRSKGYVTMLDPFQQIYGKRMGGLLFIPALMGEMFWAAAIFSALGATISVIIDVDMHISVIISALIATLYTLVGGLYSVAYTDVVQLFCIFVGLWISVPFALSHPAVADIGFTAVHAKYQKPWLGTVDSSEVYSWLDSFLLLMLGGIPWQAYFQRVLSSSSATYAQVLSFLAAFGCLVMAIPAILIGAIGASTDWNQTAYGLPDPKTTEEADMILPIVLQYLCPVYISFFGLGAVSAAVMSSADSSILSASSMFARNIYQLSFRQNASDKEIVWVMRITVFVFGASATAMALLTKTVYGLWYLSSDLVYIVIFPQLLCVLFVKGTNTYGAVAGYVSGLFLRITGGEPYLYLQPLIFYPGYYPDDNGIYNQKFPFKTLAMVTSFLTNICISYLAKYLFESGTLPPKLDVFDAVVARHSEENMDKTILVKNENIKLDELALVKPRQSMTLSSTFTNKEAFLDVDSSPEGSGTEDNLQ
Briefly: CHT inhibitors, dose response, cell-based, 5-point CRC, membrane potential dye (AID 504840). In kind it is functional.

The target of assay [24] is T2, High affinity choline transporter 1. Briefly: CHT inhibitors, dose response, cell-based, 10-point CRC, membrane potential dye (AID 588401).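 Also: membrane potential dye fluorescence of choline-evoked depolarization via CHT.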 In kind it is functional.

Molecules are shown by their SMILES. The source made the active and inactive calls. Bounds are passed on as bounds.

Sequence of Serine/threonine-protein kinase D3 (O94806 whole entry): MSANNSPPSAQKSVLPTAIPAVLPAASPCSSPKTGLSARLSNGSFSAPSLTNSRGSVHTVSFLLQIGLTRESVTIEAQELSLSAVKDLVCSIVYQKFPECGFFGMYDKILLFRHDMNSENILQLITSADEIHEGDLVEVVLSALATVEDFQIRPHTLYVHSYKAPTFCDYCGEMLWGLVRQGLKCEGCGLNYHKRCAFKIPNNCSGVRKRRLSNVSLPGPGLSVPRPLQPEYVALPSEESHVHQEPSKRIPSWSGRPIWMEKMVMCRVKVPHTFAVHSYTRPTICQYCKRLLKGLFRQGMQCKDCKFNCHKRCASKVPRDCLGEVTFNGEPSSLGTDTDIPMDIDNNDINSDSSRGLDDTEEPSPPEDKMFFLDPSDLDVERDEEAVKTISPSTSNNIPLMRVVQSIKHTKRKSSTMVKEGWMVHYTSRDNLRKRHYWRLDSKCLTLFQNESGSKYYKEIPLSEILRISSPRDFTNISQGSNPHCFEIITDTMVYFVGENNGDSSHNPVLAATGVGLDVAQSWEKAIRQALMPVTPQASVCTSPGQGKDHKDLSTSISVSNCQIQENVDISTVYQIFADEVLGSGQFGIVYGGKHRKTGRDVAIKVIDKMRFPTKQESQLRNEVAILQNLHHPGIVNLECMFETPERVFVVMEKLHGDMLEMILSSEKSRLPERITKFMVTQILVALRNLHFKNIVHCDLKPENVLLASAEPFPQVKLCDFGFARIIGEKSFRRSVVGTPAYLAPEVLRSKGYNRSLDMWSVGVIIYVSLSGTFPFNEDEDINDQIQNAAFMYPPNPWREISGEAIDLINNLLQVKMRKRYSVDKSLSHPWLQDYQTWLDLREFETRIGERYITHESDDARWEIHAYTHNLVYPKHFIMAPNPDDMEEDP
Sequence of Dual specificity protein kinase CLK2 (P49760 whole entry): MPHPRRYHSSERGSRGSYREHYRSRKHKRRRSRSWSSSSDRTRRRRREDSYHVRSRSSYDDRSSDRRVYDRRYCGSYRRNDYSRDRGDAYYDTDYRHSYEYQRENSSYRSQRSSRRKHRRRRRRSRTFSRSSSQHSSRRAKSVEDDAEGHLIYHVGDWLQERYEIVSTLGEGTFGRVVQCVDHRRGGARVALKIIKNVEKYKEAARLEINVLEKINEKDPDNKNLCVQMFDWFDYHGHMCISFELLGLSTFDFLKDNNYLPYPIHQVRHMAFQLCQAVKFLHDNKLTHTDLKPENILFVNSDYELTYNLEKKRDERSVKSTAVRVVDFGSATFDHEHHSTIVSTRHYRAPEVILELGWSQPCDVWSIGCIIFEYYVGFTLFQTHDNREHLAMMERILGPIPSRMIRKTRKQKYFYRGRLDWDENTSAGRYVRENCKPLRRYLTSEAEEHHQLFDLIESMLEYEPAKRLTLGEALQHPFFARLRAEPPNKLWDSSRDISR
Sequence of Serine/threonine-protein kinase D2 (Q9BZL6 whole entry): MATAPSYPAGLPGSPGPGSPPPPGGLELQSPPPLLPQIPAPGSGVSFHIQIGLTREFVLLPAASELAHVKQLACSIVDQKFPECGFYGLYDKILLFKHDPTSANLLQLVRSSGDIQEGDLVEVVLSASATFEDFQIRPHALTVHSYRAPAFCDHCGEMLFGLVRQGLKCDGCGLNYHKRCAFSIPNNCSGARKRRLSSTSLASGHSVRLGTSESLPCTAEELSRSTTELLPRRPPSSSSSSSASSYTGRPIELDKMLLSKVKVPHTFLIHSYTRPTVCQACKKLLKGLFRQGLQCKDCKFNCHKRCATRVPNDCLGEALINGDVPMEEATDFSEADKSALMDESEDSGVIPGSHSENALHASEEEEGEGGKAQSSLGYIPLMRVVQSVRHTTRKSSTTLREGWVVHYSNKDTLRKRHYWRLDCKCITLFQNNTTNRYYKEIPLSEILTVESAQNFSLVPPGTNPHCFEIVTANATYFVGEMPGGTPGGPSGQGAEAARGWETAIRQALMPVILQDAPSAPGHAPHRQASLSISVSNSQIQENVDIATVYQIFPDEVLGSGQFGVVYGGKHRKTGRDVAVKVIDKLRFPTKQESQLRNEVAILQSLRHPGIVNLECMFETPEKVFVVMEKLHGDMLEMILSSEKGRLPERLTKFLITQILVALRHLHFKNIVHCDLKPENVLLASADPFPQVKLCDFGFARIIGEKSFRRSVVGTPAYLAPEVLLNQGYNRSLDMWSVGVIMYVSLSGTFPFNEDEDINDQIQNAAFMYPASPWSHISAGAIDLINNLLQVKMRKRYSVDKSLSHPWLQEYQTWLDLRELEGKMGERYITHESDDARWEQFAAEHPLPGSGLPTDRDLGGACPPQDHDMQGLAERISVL
Sequence of Melanocortin receptor 4 (P32245 whole entry): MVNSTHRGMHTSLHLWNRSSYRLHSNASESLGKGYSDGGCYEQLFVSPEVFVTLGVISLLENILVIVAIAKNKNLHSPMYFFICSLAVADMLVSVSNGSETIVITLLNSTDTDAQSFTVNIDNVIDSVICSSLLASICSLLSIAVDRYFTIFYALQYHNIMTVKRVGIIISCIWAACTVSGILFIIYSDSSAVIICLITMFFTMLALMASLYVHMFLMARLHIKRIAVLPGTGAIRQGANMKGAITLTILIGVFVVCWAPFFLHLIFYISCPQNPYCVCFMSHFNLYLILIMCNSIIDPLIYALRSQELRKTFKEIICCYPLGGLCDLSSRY

Take `Cn1ccc2c(-c3ccccc3F)nc(N(C(N)=O)c3c(F)cccc3F)nc21`: the Ki is 7.94 µM (active) in assay [1]; 3.16 µM (active) in [2]; 2 µM (active) in assay [3]; 1.26 µM (active) in assay [4]; 3.16 µM (active) in assay [5].

Regarding `C[S+]([O-])c1nc(-c2ccc(Br)cc2)cc(-c2ccccc2)c1C#N` (stereo not given), the EC50 in assay [6] was 7.72 µM (active); in the assay on BJ [7] it was 3.04 µM (active); in assay [8] it was 5.38 µM (active); in [9], 3.41 µM (active); with BJ [10], 5.13 µM (active); in [11] it was 1.78 µM (active). Moreover, the EC50 was 2.18 µM (active) in assay [12], 2.41 µM (active) in the assay on BJ [13] and 2.91 µM (active) in [14]. For the same compound, the figures for the IC50 (at Melanocortin receptor 4; in assay [15]) were 1.28 µM (active) and > 64.6 µM (inactive), respectively. The AC50 in assay [16] was 5.21 µM (active); in [17], 3.25 µM (active); in assay [18], 11.2 µM (active); in assay [19] it was 19.8 µM (active); in [20], 25.1 µM (active); in [21], 7.73 µM (active).

As to `CC(C)CCN=C(S)Nc1ccc([N+](=O)[O-])cc1`, the IC50 is > 50 µM (not active) in assay [22], 9.34 µM (active) in assay [23] and 8.43 µM (active) in assay [24].

These data come from ChEMBL document CHEMBL1201862, “PubChem BioAssay data set” (2004).
